Test results as given in US20030212123A1, “COX-2 selective carprofen for treating pain and inflammation in dogs” (Pfizer Inc., priority 1997, published 2003).
Like-named read-outs stand apart in the source and are kept apart here.

Key:
canine COX-2 = target: T1, canine COX-2 (Canis lupus familiaris, UniProt Q8SPQ9); assay: Canine COX-2 activity: LPS-treated DH82 canine histocytoma cells, PGE2 by EIA; type: cell-based, dog
T1 construct: host or cells: DH82 canine histocytoma cells, LPS-treated overnight
T1 sequence (Q8SPQ9 18-604): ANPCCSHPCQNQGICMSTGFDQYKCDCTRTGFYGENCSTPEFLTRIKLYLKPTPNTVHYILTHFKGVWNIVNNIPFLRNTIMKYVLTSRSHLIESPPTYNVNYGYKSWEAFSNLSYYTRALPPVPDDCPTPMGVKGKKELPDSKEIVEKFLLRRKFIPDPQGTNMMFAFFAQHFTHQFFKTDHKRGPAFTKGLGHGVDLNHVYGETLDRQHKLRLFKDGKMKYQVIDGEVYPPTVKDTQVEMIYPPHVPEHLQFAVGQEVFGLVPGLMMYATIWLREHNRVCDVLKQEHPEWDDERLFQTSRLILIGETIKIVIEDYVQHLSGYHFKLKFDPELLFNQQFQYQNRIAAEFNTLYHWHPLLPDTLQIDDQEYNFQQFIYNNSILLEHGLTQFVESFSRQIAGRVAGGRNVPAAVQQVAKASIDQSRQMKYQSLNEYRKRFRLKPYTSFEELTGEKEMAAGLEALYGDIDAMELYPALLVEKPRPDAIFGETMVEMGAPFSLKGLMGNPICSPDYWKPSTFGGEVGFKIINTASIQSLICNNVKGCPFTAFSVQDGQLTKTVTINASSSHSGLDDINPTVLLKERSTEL
Method: Protocol for Evaluation of Canine COX-2 Activity
A canine histocytoma (macrophage-like) cell line from the American Type Culture Collection designated as DH82, was used in setting up the protocol for evaluating the COX-2 inhibition activity of various test drug compounds. There was added to flasks of these cells 10 μg/mL of LPS, after which the flask cultures were incubated overnight. The same test drug compound dilutions as described above for the COX-1 protocol were used for the COX-2 assay and were prepared the day before the assay was carried out. […] The test sample suspensions were incubated for 1 hr and then centrifuged at 1000 rpm for 10 min at 4° C., after which 50 μl aliquots of each test drug sample were delivered to EIA plates. The EIA was performed for prostaglandin E2 (PGE2), and the pg/mL concentration of PGE2 was calculated from the standard line included on each plate. […] The results were averaged, and a single COX-1:COX-2 ratio was calculated.

COX-2 = COX-2 (Canis lupus familiaris, UniProt Q8SPQ9); assay: in vivo; details: for PGE2 Pg/mL/Well: group average; for inhibition at 2 mg/kg / inhibition at 10 mg/kg: dog, po
Method: A zero-hour blood sample was collected from all dogs in the study prior to dosing, followed by 1-, 3-, and 6-hour post-dose blood sample collections. […] Test tubes used as controls contained vehicle and were unstimulated by the addition of any agent. A 500 μL sample of blood was added to each of the above-described test tubes, after which they were incubated at 37° C. for one hr in the case of the calcium ionophore-containing test tubes, and overnight in the case of the LPS-containing test tubes. After incubation, 10 μL of EDTA was added to give a final concentration of 0.3%, in order to prevent coagulation of the plasma which sometimes occurs after thawing frozen plasma samples. The incubated samples were centrifuged at 4° C. and the resulting plasma sample of ˜200 μL was collected and stored at −20° C. in polypropylene 96-well plates. In order to determine endpoints for this study, enzyme immunoassay (EIA) kits available from Cayman were used to measure production of TXB2 and PGE2, utilizing the principle of competitive binding of tracer to antibody and endpoint determination by colorimetry.
The data is expressed as treatment group averages in pg/mL of TXB2 and PGE2 produced per sample. Plasma dilution was not factored in said data values.

COX-1 = target: T2, COX-1 (Canis lupus familiaris, UniProt Q8HZR1); assay: Canine whole blood ex vivo COX-1 activity (A23187-stimulated TXB2), Example 2; type: in vivo, dog; details: for TXB2 Pg/mL/Well: group average; for inhibition at 2 mg/kg / inhibition at 10 mg/kg: dog, po, based on zero hour value, read-out: COX-1 activity Percent Inhibition
T2 construct: using an ex vivo procedure on canine whole blood; from tissue; host or cells: whole blood of dosed dogs, stimulated with calcium ionophore A23187
T2 sequence (Q8HZR1 28-603): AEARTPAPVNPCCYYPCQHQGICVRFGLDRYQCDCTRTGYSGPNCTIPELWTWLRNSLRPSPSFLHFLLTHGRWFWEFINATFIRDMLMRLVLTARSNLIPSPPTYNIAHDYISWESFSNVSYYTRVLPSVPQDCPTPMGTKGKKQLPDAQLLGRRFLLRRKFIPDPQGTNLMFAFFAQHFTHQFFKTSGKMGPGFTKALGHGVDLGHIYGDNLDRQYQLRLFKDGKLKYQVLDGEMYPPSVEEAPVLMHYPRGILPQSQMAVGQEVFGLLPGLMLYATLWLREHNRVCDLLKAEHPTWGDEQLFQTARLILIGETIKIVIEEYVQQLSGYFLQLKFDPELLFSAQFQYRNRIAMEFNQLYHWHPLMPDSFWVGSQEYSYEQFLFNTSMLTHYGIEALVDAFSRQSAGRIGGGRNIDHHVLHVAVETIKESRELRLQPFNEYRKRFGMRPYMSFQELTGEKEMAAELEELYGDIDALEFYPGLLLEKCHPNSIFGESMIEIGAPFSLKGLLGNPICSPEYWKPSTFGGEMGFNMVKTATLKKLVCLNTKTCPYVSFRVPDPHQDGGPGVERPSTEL
Excerpt: Plasma dilution was not factored in said data values.

[1] = 2 mg/kg PO capsule, 0-hour (pre-dose)
[2] = 2 mg/kg PO capsule, 1-hour post-dose
[3] = 2 mg/kg PO capsule, 3-hour post-dose
[4] = 2 mg/kg PO capsule, 6-hour post-dose
[5] = 10 mg/kg PO capsule, 0-hour (pre-dose)
[6] = 10 mg/kg PO capsule, 1-hour post-dose
[7] = 10 mg/kg PO capsule, 3-hour post-dose
[8] = 10 mg/kg PO capsule, 6-hour post-dose

Structure (SMILES): CC(C(=O)O)c1ccc2c(c1)[nH]c1ccc(Cl)cc12 (racemic) [Carprofen (rac.), 6-chloro-α-methyl-9H-carbazole-2-acetic acid]
- IC50 (canine COX-2): 0.102 µM
- PGE2 Pg/mL/Well (COX-2; [1]): 511 Pg/mL/Well
- PGE2 Pg/mL/Well (COX-2; [2]): 33 Pg/mL/Well
- PGE2 Pg/mL/Well (COX-2; [3]): 98 Pg/mL/Well
- PGE2 Pg/mL/Well (COX-2; [4]): 190 Pg/mL/Well
- PGE2 Pg/mL/Well (COX-2; [5]): 336 Pg/mL/Well
- PGE2 Pg/mL/Well (COX-2; [6]): 19 Pg/mL/Well
- PGE2 Pg/mL/Well (COX-2; [7]): 12 Pg/mL/Well
- PGE2 Pg/mL/Well (COX-2; [8]): 12 Pg/mL/Well
- inhibition at 2 mg/kg (COX-2; read-out: COX-2 activity Percent Inhibition, 2 mg/kg PO capsule, 1-hour, based on zero hour value): 94%
- inhibition at 2 mg/kg (COX-2; read-out: COX-2 activity Percent Inhibition, 2 mg/kg PO capsule, 3-hour, based on zero hour value): 81%
- inhibition at 2 mg/kg (COX-2; read-out: COX-2 activity Percent Inhibition, 2 mg/kg PO capsule, 6-hour, based on zero hour value): 63%
- inhibition at 10 mg/kg (COX-2; read-out: COX-2 activity Percent Inhibition, 10 mg/kg PO capsule, 1-hour, based on zero hour value): 94%
- inhibition at 10 mg/kg (COX-2; read-out: COX-2 activity Percent Inhibition, 10 mg/kg PO capsule, 3-hour, based on zero hour value): 96%
- inhibition at 10 mg/kg (COX-2; read-out: COX-2 activity Percent Inhibition, 10 mg/kg PO capsule, 6-hour, based on zero hour value): 96%
- TXB2 Pg/mL/Well (COX-1; [1]): 72 Pg/mL/Well
- TXB2 Pg/mL/Well (COX-1; [2]): 75 Pg/mL/Well
- TXB2 Pg/mL/Well (COX-1; [3]): 66 Pg/mL/Well
- TXB2 Pg/mL/Well (COX-1; [4]): 46 Pg/mL/Well
- TXB2 Pg/mL/Well (COX-1; [5]): 51 Pg/mL/Well
- TXB2 Pg/mL/Well (COX-1; [6]): 31 Pg/mL/Well
- TXB2 Pg/mL/Well (COX-1; [7]): 6 Pg/mL/Well
- TXB2 Pg/mL/Well (COX-1; [8]): 7 Pg/mL/Well
- inhibition at 2 mg/kg (COX-1; 2 mg/kg PO capsule, 1-hour): 0%
- inhibition at 2 mg/kg (COX-1; 2 mg/kg PO capsule, 3-hour): 8%
- inhibition at 2 mg/kg (COX-1; 2 mg/kg PO capsule, 6-hour): 36%
- inhibition at 10 mg/kg (COX-1; 10 mg/kg PO capsule, 1-hour): 39%
- inhibition at 10 mg/kg (COX-1; 10 mg/kg PO capsule, 3-hour): 88%
- inhibition at 10 mg/kg (COX-1; 10 mg/kg PO capsule, 6-hour): 86%
